{
  "source": "patent US7265152B2",
  "about": "(ViroPharma Incorporated, priority 2002, dated 2007)",
  "key": {"[1]": {"tested_on": "HCV replicon (BB7 sequence) in Huh-7-Clone A cells", "experiment": "HCV replicon assay: ELISA of NS5A protein in replicon-containing cells (Inhibition of Viral RNA Replication)", "format": "cell-based", "conditions": "Hepatitis C virus, read-out: Replicon", "excerpt": "Antiviral activity of representative compounds of the invention was first evaluated in a human liver-derived cell line (Huh-7-Clone A) containing the HCV replicon (BB7 sequence) (See Lohmann et al. Science. 1999, 285:110-3; Blight K J et al., Science. 2000, 290:1972-4; Pietschmann, T. et al., J. Virol. 2001, 73:1252-1264; and Lohmann, V. et al., J. Virol. 2001, 75:1437-1449). The HCV replicon is a subgenomic viral RNA that expresses the HCV proteins required for its own replication. These proteins include non-structural proteins NS3, NS4A, NS4B, NS5A and NS5B. The replicon also contains a foreign gene encoding a drug-selectable marker (neomycin phosphotransferase) to allow for G418 (neomycin) selection of cells that contain the replicon.\nAn ELISA (enzyme-linked immunosorbant assay) was used to determine the effect of compounds within the scope of the invention on the amount of HCV NS5A protein produced after a 72-hour incubation of the replicon-containing cells in the presence of varying concentrations of compound. COSTAR® 96-well cell culture plates were used but other known cell culture plates may be used. After incubation, media is removed from wells and the cells are fixed to the assay plate using 0.05% glutaraldehyde. The glutaraldehyde is then washed off using phosphate-buffered saline (PBS) following a 1 hour incubation and cells are blocked for non-specific antibody binding using for example SUPERBLOCK® reagent (blocking buffer) in PBS. The blocking agent is rinsed from the cells with PBS after 1 hour at 37° C. and primary monoclonal antibody is added to each well containing compound. Primary antibody is incubated for 1 hour at 37° C. and rinsed 3 times with PBS containing 0.02% TWEEN-20™ before addition of Horseradish Peroxidase (HRP) conjugated secondary antibody. HRP is incubated for 1 hour at 37° C. and rinsed several times, first with PBS/TWEEN-20™ followed by PBS alone. To quantify peroxidase activity, 3,3′,5, 5′-tetramethylbenzidine (TMB) substrate is added to the plate and after 30 minutes, the plates are read in an ELISA plate reader at an OD of 650 nm. Compound dose response was measured in an 8-point dose curve diluted serially to determine the inhibitory concentration at 50% (EC50 value). […] Ranges of 50% effective concentrations (EC50s) for representative compounds within the scope of this invention are listed in Table 1. Preferred compounds have 50% effective concentrations at about 30 μM or less, more preferred compounds have 50% effective concentrations at about 5 μM or less, and most preferred compounds have 50% effective concentrations at about 0.5 μM or less."}, "[2]": {"target": "T1, HCV NS5B (Hepatitis C virus genotype 1b, UniProt Q9WMX2)", "T1 construct": "fusion protein, of which the carboxyl terminal 21 amino acids were removed to enhance its solubility; His tag (GSHHHHHH); made in house; host or cells: E. coli", "experiment": "Inhibition of viral RNA-dependent RNA polymerase (RdRp), in vitro biochemical assay", "set-up": "species or system HCV genotype 1b virus (BB7)", "conditions": "read-out: HCV pol-BB7 IC50", "excerpt": "The HCV NS5B-directed RdRp activity was established and characterized in a standard in vitro biochemical assay using a purified HCV NS5B protein derived from the consensus sequence of a patient infected with HCV genotype 1b virus (BB7). (See Blight K J et al., Science. 2000, 290:1972-4). The NS5B consensus sequence was cloned and expressed in E. coli as a histidine tagged (GSHHHHHH) fusion protein, of which the carboxyl terminal 21 amino acids were removed to enhance its solubility.\nIn addition to evaluating their activity in the replicon assay, representative compounds within the scope of the present invention, as shown in examples 1-453 of Table 1, were also evaluated for antiviral activity using this assay. A measure of the inhibitory activity of compounds of the invention may be expressed as IC50 values. IC50 values represent the concentration of the compound at which 50% of the RdRp activity is inhibited. […] These low concentrations of test compounds required to achieve 50% inhibition of the RdRp activity indicate that the compounds of the invention are effective at inhibiting RNA synthesis by viral RdRp enzymes."}, "[3]": {"conditions": "HCV replicon assay, ranges of 50% effective concentration (EC50)"}, "[4]": {"conditions": "HCV NS5B polymerase, BB7 (genotype 1b), values given as range classes A-D"}, "[5]": {"conditions": "HCV replicon assay, ranges of EC50"}, "[6]": {"conditions": "HCV NS5B RdRp, BB7, activity class"}, "[7]": {"conditions": "Huh-7-Clone A, NS5A ELISA, 72-hour incubation, ranges of EC50"}, "[8]": {"conditions": "purified His-tagged NS5B (BB7), carboxyl terminal 21 amino acids removed"}, "[9]": {"conditions": "ranges of EC50 in HCV replicon assay"}, "[10]": {"conditions": "HCV NS5B RdRp, BB7, reported as range class"}},
  "note": "pEC50, pIC50: −log10 of the molar value. Read-outs that look alike come from different tables or passages of the source.",
  "data": [
    {"smiles": "CCOC(=O)c1csc(COc2cc3c(C(=O)NC)c(-c4ccc(F)cc4)oc3cc2N(C)S(C)(=O)=O)n1", "note": "[Example 392, 2-[2-(4-Fluoro-phenyl)-6-(methanesulfonyl-methyl-amino)-3-methylcarbamoyl-benzofuran-5-yloxymethyl]-thiazole-4-carboxylic acid ethyl ester]", "values": [
      {"measurement": "pEC50", "setting": "[1]; [3]", "value": "> 6.00"},
      {"measurement": "pIC50", "setting": "[2]; [4]", "value": "≥ 6.30"}
    ]},
    {"smiles": "CNC(=O)c1c(-c2ccc(F)cc2)oc2cc(C(C)(O)CN)c(OC(C)C)cc12", "note": "(centres unmarked) [Example 375, 6-(2-Amino-1-hydroxy-1-methyl-ethyl)-2-(4-fluoro-phenyl)-5-isopropoxy-benzofuran-3-carboxylic acid methylamide]", "values": [
      {"measurement": "pEC50", "setting": "[1]; [5]", "value": "> 4.52"},
      {"measurement": "pIC50", "setting": "[2]; [6]", "value": "5.30 to 6.30"}
    ]},
    {"smiles": "CCOc1cc2c(C(=O)NC)c(-c3ccc(F)cc3)oc2cc1N(CC)CC", "note": "[Example 423, 6-Diethylamino-5-ethoxy-2-(4-fluoro-phenyl)-benzofuran-3-carboxylic acid methylamide]", "values": [
      {"measurement": "pEC50", "setting": "[1]; [3]", "value": "> 6.00"},
      {"measurement": "pIC50", "setting": "[2]; [4]", "value": "≥ 6.30"}
    ]},
    {"smiles": "CCc1cc2c(C(=O)NC)c(-c3ccc(F)cc3)oc2cc1N(C)S(C)(=O)=O", "note": "[Example 45, 5-Ethyl-2-(4-fluoro-phenyl)-6-(methanesulfonyl-methyl-amino)-benzofuran-3-carboxylic acid methylamide]", "values": [
      {"measurement": "pEC50", "setting": "[1]; [7]", "value": "> 6.00"},
      {"measurement": "pIC50", "setting": "[2]; [8]", "value": "≥ 6.30"}
    ]},
    {"smiles": "CCN(C)c1cc2oc(-c3ccc(F)cc3)c(C(=O)NC)c2c(Cl)c1OC", "note": "[Example 362, 4-Chloro-6-(ethyl-methyl-amino)-2-(4-fluoro-phenyl)-5-methoxy-benzofuran-3-carboxylic acid methylamide]", "values": [
      {"measurement": "pEC50", "setting": "[1]; [5]", "value": "> 5.00"},
      {"measurement": "pIC50", "setting": "[2]; [6]", "value": "≥ 6.30"}
    ]},
    {"smiles": "CNC(=O)c1c(-c2ccc(F)cc2)oc2ccc(OCc3cccc(C(=O)O)c3)cc12", "note": "[Example 260, 3-[2-(4-Fluoro-phenyl)-3-methylcarbamoyl-benzofuran-5-yloxymethyl]-benzoic acid]", "values": [
      {"measurement": "pEC50", "setting": "[1]; [5]", "value": "< 4.52"},
      {"measurement": "pIC50", "setting": "[2]; HCV NS5B RdRp, BB7, class symbols A-D", "value": "≥ 6.30"}
    ]},
    {"smiles": "CCCCOc1ccc2oc(-c3ccccc3)c(C(=O)NC)c2c1", "note": "[Example 60, 5-Butoxy-2-phenyl-benzofuran-3-carboxylic acid methylamide]", "values": [
      {"measurement": "pEC50", "setting": "[1]; [7]", "value": "> 4.52"},
      {"measurement": "pIC50", "setting": "[2]; [8]", "value": "5.30 to 6.30"}
    ]},
    {"smiles": "CCOC(=O)c1ccc(NC(=O)COc2cc3c(C(=O)NC)c(-c4ccc(F)cc4)oc3cc2N(C)S(C)(=O)=O)cc1", "note": "[Example 359, 4-{2-[2-(4-Fluoro-phenyl)-6-(methanesulfonyl-methyl-amino)-3-methylcarbamoyl-benzofuran-5-yloxy]-acetylamino}-benzoic acid ethyl ester]", "values": [
      {"measurement": "pEC50", "setting": "[1]; [5]", "value": "> 5.00"},
      {"measurement": "pIC50", "setting": "[2]; [6]", "value": "≥ 6.30"}
    ]},
    {"smiles": "CNC(=O)c1c(-c2ccc(F)cc2)oc2cc(S(=O)(=O)N(C)C)c(OC(C)C)cc12", "note": "[Example 144, 6-Dimethylsulfamoyl-2-(4-fluoro-phenyl)-5-isopropoxy-benzofuran-3-carboxylic acid methylamide]", "values": [
      {"measurement": "pEC50", "setting": "[1]; [9]", "value": "> 4.52"},
      {"measurement": "pIC50", "setting": "[2]; HCV NS5B RdRp, BB7 genotype 1b", "value": "≥ 6.30"}
    ]},
    {"smiles": "CNC(=O)c1c(-c2ccc(F)cc2)oc2cc(OCc3ccccc3)c(OCc3ccccc3)cc12", "note": "[Example 183, 5,6-Bis-benzyloxy-2-(4-fluoro-phenyl)-benzofuran-3-carboxylic acid methylamide]", "values": [
      {"measurement": "pEC50", "setting": "[1]; HCV replicon, range of EC50", "value": "> 5.00"},
      {"measurement": "pIC50", "setting": "[2]; [10]", "value": "< 4.52"}
    ]},
    {"smiles": "CNC(=O)c1c(-c2ccc(F)cc2)oc2ccc(OC)cc12", "note": "[Example 12, 2-(4-Fluoro-phenyl)-5-methoxy-benzofuran-3-carboxylic acid methylamide]", "values": [
      {"measurement": "pEC50", "setting": "[1]; [7]", "value": "> 5.00"},
      {"measurement": "pIC50", "setting": "[2]; [8]", "value": "≥ 6.30"}
    ]},
    {"smiles": "CNC(=O)c1c(-c2ccc(F)cc2)oc2cc(N(C)CCOC)c(OC(C)C)cc12", "note": "[Example 119, 2-(4-Fluoro-phenyl)-5-isopropoxy-6-[(2-methoxy-ethyl)-methyl-amino]-benzofuran-3-carboxylic acid methylamide]", "values": [
      {"measurement": "pEC50", "setting": "[1]; [9]", "value": "> 6.00"},
      {"measurement": "pIC50", "setting": "[2]; HCV NS5B RdRp, BB7 genotype 1b", "value": "≥ 6.30"}
    ]},
    {"smiles": "CNC(=O)c1c(-c2ccc(F)cc2)oc2cc(-c3cncs3)c(OC(C)C)cc12", "note": "[Example 227, 2-(4-Fluoro-phenyl)-5-isopropoxy-6-thiazol-5-yl-benzofuran-3-carboxylic acid methylamide]", "values": [
      {"measurement": "pEC50", "setting": "[1]; HCV replicon, range of EC50", "value": "> 6.00"},
      {"measurement": "pIC50", "setting": "[2]; [10]", "value": "≥ 6.30"}
    ]}
  ]
}
